“Also recorded” adds a separate entry of the source. One block for each molecule: values may come before it.
Legend:
[1] = system: TRAMP (transgenic adenocarcinoma of mouse prostate) mice; assay: Treatment of TRAMP mice (tumour mass, histology, MRI); format: in vivo; details: for prostate cancer progression in the TRAMP mouse model: administered either alone or in combination with MTA
Protocol: MRI experiments were performed using a 9.4 T 21 cm bore horizontal bore magnet (Magnex Scientific) Varian INOVA MRI system (Fremont, Calif.) equipped with a 28 mm inner diameter quadrature birdcage coil. Mice were anesthetized with isoflurane inhalation anesthesia (1-1.5% in 100% O2 administered via a nose cone) and positioned in the MRI coil. Body temperature was maintained (37-38° C.) using a homeothermic warming system. After acquiring scout images, multi-slice spin-echo imaging with an echo time of 18 ms and a repetition time of 400 ms ms was performed. A 40 mm field of view with a 256×256 matrix size was used. Nine to 15 slices along the transverse, sagittal, and coronal planes were acquired in each multi-slice experiment with a slice thickness of 1 mm and the gap between slices of 0.5 mm. MRI data were processed off-line with MATLAB-based MRI analysis software.
Long-Term: Sterile solutions of 100 μM compound (2) (pH ˜6.4). Water bottles were autoclaved prior to filling with sterile inhibitor solutions. Water consumption was monitored every other day, with fresh inhibitor solution being administered to prevent bacterial growth. Mice were control-sacrificed and tissues (genitourinary system, liver, lungs) were collected for histology and polyamine analysis. Mass and dimensions of excised genitourinary system tumours were recorded. Sections of small intestine were also removed for toxicity analysis via H&E staining.

FaDu xenografts = assay: FaDu xenograft studies in NOD-SCID mice; format: in vivo, mouse
Protocol: NOD-SCID mice (6-8 weeks old) were obtained from Jackson Laboratory (Bar Harbor, Me.). FaDu cells (10^6) were inoculated into the dorsum of the hind foot. After 5 days, mice were treated with 9 mg/kg or 21 mg/kg body weight of compound (2) in drinking water or by daily i.p. injections of 5 mg/kg body weight of compound (2). After inoculation mice were assigned to treatment or control groups (n=5). Tumor volume (V) was determined from: V=(4/3)*(22/7)*1/8*(length*width*height). Differences between treatment cohorts were determined using the Student's t test Mice were weighed every 4-5 days, monitored for hair loss, loss of appetite, vomiting and diarrhoea. Total and differential blood and bone marrow analyses were performed after treatment with compound (2).

SMILES: CSC[C@H]1N[C@@H](c2c[nH]c3c(N)ncnc23)C(O)C1O (stereo partly drawn) [compound (3)]
- prostate cancer progression in the TRAMP mouse model [1]: inhibits prostate cancer progression

- differences in animal weight or in total and differential blood counts between treatment and control groups (FaDu xenografts; NOD-SCID mice with FaDu tumors, after 28 days of therapy): No significant differences
SMILES: CSC[C@H]1CN(Cc2c[nH]c3c(N)ncnc23)C[C@@H]1O [compound (2), (3R,4S)-1-[(9-deazaadenin-9-yl)methyl]-3-hydroxy-4-(methylthiomethyl)pyrrolidine]
- tumour growth and metastasis in TRAMP mice ([1]; 100 μM via drinking water, approximately 6-8 months): reduces tumour growth and metastasis
- prostate cancer progression in the TRAMP mouse model [1]: inhibited
- regrowth of tumor after removal of treatment (FaDu xenografts; 28 days without treatment after 28 day therapy, mice receiving the two highest doses): no regrowth of tumor
- growth of established FaDu xenografts (tumor growth) (FaDu xenografts; NOD-SCID mice, 9 or 21 mg/kg in drinking water or 5 mg/kg daily i.p., from day 5, versus controls): significantly slower than in controls; also recorded: significantly delays the growth

Source: patent US20110092521A1, “Methods of Treating Diseases Using Inhibitors of Nucleoside Phosphorylases and Nucleosidases” (priority 2006, published 2011)
